This note sets out measurements from US7045307B2, “Method for measuring no synthase activity” (Gruenenthal GmbH, priority 2000, dated 2006).

By inhibition is commonly meant the relative decrease from the control value, in per cent. One may read the IC50 as the point on the concentration scale where inhibition reaches its midpoint.

Some results are limits rather than exact numbers.

The target in assay [1] is T1, isolated nNOS from rat cerebella (Rattus norvegicus, UniProt P29476). The assay is described as follows: Arginine assay according to the invention (HTS NOS assay, cation exchanger filter MTP).
The target in assay [2] is T1, isolated nNOS from rat cerebella. The experiment in a line: Citrulline assay according to Bredt and Snyder (1990), separation by column chromatography. Type of assay: biochemical. As to conditions: [3H]arginine 50 nM. An excerpt: On completion of the reaction the enzyme mixtures are passed over separate cation exchange columns. Elution of the [^3H]L-citrulline and determination of the eluates then takes place on a β-counter. The disadvantage of this method is that column chromatography has to take place separately for each enzyme mixture (e.g. 96 chromatography columns are needed per 96 well microtiter plate).
The precipitate is discarded.
The separation was effected by means of column chromatography.

As for `O=[N+]([O-])c1cccc2cn[nH]c12` [7-Nitroindazole, 7-nitroindazole], the inhibition at 10 µM in assay [1] (read-out: NOS inhibition) is about 50%.

Turning to `FC(F)(F)c1ccccc1-n1ccnc1` [TRIM, 1-(2-trifluormethylphenyl)imidazole], the IC50 in assay [2] is over 100 µM; in assay [1] (read-out: IC50 value, Arginine assay according to the invention as in Example 4, [3H]arginine 50 nM, nNOS from rat cerebella, 96 well cation exchanger filter MTP), over 100 µM.

`C=CCC(=N)NCCC[C@H](N)C(=O)O` [Vinyl L-NIO, N5-(1-imino-3-butenyl)-L-ornithine]: the half-maximal inhibitory concentration (IC50) came to 5.57 µM in assay [2] and 5.02 µM in assay [1].
